Results as given in patent US9708314B2, “Heterocyclic amide compound” (NISSAN CHEMICAL INDUSTRIES, LTD., priority 2013, dated 2017).

Experiments:
Type in all cases: in vivo
[1] = tested on: directly sowed Oryza sativa; test: Test Example 3: effect on crop by application to foliage (Wagner pot, water depth 0.1-0.5 cm); settings: Nineteenth Table; application to foliage; application herbicide amount 320 g/ha
Method in brief: (§1)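 Alluvial soil in 1/10000 are Wagner pots, sown and grown 14 days in a 25–30 °C greenhouse. An emulsifiable concentrate diluted in water to the set dose (g/ha) was sprayed on stems and leaves. Effect scored three weeks later on a 0–5 scale: 5 = ≥90% herbicidal ratio, 0 = ≤5%.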

Leptochloa chinensis = test: Test Example 3: herbicidal effect by application to foliage (Wagner pot, water depth 0.1-0.5 cm); settings: Nineteenth Table; application to foliage; application herbicide amount 320 g/ha
Method in brief: as §1

Cyperus difformis = test: as above; settings: Nineteenth Table; application to foliage; application herbicide amount 320 g/ha
Method in brief: as §1

[2] = tested on: Echinochloa crus-galli var. crus-galli; test: as above; settings: Nineteenth Table; application to foliage; application herbicide amount 320 g/ha
Method in brief: as §1

Digitaria ciliaris = test: Test Example 4: herbicidal effect by application to foliage (diluvial soil, plastic box); settings: application to foliage, 320 g/ha
Method in brief: (§2)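 Plants were grown in sterilized diluvial soil in a greenhouse at 25-30° C for 14 days, then sprayed on stems and leaves with water-diluted emulsion formulation at set rates in g/ha. Weed control and crop injury were scored 3 weeks after treatment on a 0-5 herbicidal-ratio scale, from 0 (≤5%) to 5 (≥90%).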

Setaria viridis = test: as above; settings: application to foliage, 320 g/ha
Method in brief: as §2

Lolium multiflorum Lam. = test: as above; settings: application to foliage, 320 g/ha
Method in brief: as §2

Avena fatua = test: as above; settings: application to foliage, 320 g/ha
Method in brief: as §2

Abutilon theophrasti = test: as above; settings: application to foliage, 320 g/ha
Method in brief: as §2

Stellaria media = test: as above; settings: application to foliage, 320 g/ha
Method in brief: as §2

Chenopodium album = test: as above; settings: application to foliage, 320 g/ha
Method in brief: as §2

Veronica persica = test: as above; settings: application to foliage, 320 g/ha
Method in brief: as §2

Apera spica-venti. = test: as above; settings: application to foliage, 320 g/ha
Method in brief: as §2

Amaranthus retroflexus = test: as above; settings: application to foliage, 320 g/ha
Method in brief: as §2

Alopecurus myosuroides = test: as above; settings: application to foliage, 320 g/ha
Method in brief: as §2

[3] = tested on: Echinochloa crus-galli var. crus-galli; test: as above; settings: application to foliage, 320 g/ha
Method in brief: as §2

Galium spurium = test: as above; settings: application to foliage, 320 g/ha
Method in brief: as §2

SMILES | b (effect on crop grade) [1] | D (herbicidal effect grade) (Leptochloa chinensis) | E (herbicidal effect grade) (Cyperus difformis) | H (herbicidal effect grade) [2] | herbicidal effect, F (Digitaria ciliaris) (Digitaria ciliaris) | herbicidal effect, G (Setaria viridis) (Setaria viridis) | herbicidal effect, K (Lolium multiflorum Lam.) (Lolium multiflorum Lam.) | herbicidal effect, I (Avena fatua) (Avena fatua) | herbicidal effect, M (Abutilon theophrasti) (Abutilon theophrasti) | herbicidal effect, P (Stellaria media) (Stellaria media) | herbicidal effect, O (Chenopodium album) (Chenopodium album) | herbicidal effect, R (Veronica persica) (Veronica persica) | herbicidal effect, L (Apera spica-venti.) (Apera spica-venti.) | herbicidal effect, N (Amaranthus retroflexus) (Amaranthus retroflexus) | herbicidal effect, J (Alopecurus myosuroides) (Alopecurus myosuroides) | herbicidal effect, H (Echinochloa crus-galli var. crus-galli) [3] | herbicidal effect, Q (Galium spurium) (Galium spurium)
CN(c1nnc2c(C(=O)Nc3nnnn3C)ccc(C(F)(F)F)n12)C1CCCCC1 [2-083] | 0 (Herbicidal ratio of 5% or less (almost no effect)) | 4 (Herbicidal ratio of 70% or more and less than 90%) | 5 (Herbicidal ratio of 90% or more (almost completely withered)) | 4 (Herbicidal ratio of 70% or more and less than 90%) | 5 (Herbicidal ratio of 90% or more (almost completely withered)) | 4 (Herbicidal ratio of 70% or more and less than 90%) | 1 (Herbicidal ratio of 5% or more and less than 20%) | 2 (Herbicidal ratio of 20% or more and less than 40%) | 5 (Herbicidal ratio of 90% or more (almost completely withered)) | 4 (Herbicidal ratio of 70% or more and less than 90%) | 5 (Herbicidal ratio of 90% or more (almost completely withered)) | 4 (Herbicidal ratio of 70% or more and less than 90%) | 1 (Herbicidal ratio of 5% or more and less than 20%) | 5 (Herbicidal ratio of 90% or more (almost completely withered)) | 1 (Herbicidal ratio of 5% or more and less than 20%) | 5 (Herbicidal ratio of 90% or more (almost completely withered)) | 3 (Herbicidal ratio of 40% or more and less than 70%)
Cn1nnnc1NC(=O)c1ccc(C(F)(F)F)n2c(SCC3CC3)nnc12 [2-084] | 5 (Herbicidal ratio of 90% or more (almost completely withered)) | 5 (Herbicidal ratio of 90% or more (almost completely withered)) | 5 (Herbicidal ratio of 90% or more (almost completely withered)) | 5 (Herbicidal ratio of 90% or more (almost completely withered)) | 5 (Herbicidal ratio of 90% or more (almost completely withered)) | 5 (Herbicidal ratio of 90% or more (almost completely withered)) | 3 (Herbicidal ratio of 40% or more and less than 70%) | 4 (Herbicidal ratio of 70% or more and less than 90%) | 5 (Herbicidal ratio of 90% or more (almost completely withered)) | 5 (Herbicidal ratio of 90% or more (almost completely withered)) | 5 (Herbicidal ratio of 90% or more (almost completely withered)) | 3 (Herbicidal ratio of 40% or more and less than 70%) | 4 (Herbicidal ratio of 70% or more and less than 90%) | 5 (Herbicidal ratio of 90% or more (almost completely withered)) | 3 (Herbicidal ratio of 40% or more and less than 70%) | 5 (Herbicidal ratio of 90% or more (almost completely withered)) | 4 (Herbicidal ratio of 70% or more and less than 90%)
Cn1nnnc1NC(=O)c1ccc(C(F)(F)F)n2c(SCC3CCCO3)nnc12 (stereo not shown) [2-085] | 4 (Herbicidal ratio of 70% or more and less than 90%) | 5 (Herbicidal ratio of 90% or more (almost completely withered)) | 4 (Herbicidal ratio of 70% or more and less than 90%) | 5 (Herbicidal ratio of 90% or more (almost completely withered)) | 5 (Herbicidal ratio of 90% or more (almost completely withered)) | 5 (Herbicidal ratio of 90% or more (almost completely withered)) | 3 (Herbicidal ratio of 40% or more and less than 70%) | 4 (Herbicidal ratio of 70% or more and less than 90%) | 5 (Herbicidal ratio of 90% or more (almost completely withered)) | 5 (Herbicidal ratio of 90% or more (almost completely withered)) | 5 (Herbicidal ratio of 90% or more (almost completely withered)) | 4 (Herbicidal ratio of 70% or more and less than 90%) | 4 (Herbicidal ratio of 70% or more and less than 90%) | 5 (Herbicidal ratio of 90% or more (almost completely withered)) | 3 (Herbicidal ratio of 40% or more and less than 70%) | 5 (Herbicidal ratio of 90% or more (almost completely withered)) | 4 (Herbicidal ratio of 70% or more and less than 90%)
Cn1nnnc1NC(=O)c1ccc(C(F)(F)F)n2c(SCC#N)nnc12 [2-086] | 3 (Herbicidal ratio of 40% or more and less than 70%) | 5 (Herbicidal ratio of 90% or more (almost completely withered)) | 4 (Herbicidal ratio of 70% or more and less than 90%) | 5 (Herbicidal ratio of 90% or more (almost completely withered)) | 5 (Herbicidal ratio of 90% or more (almost completely withered)) | 5 (Herbicidal ratio of 90% or more (almost completely withered)) | 2 (Herbicidal ratio of 20% or more and less than 40%) | 3 (Herbicidal ratio of 40% or more and less than 70%) | 5 (Herbicidal ratio of 90% or more (almost completely withered)) | 4 (Herbicidal ratio of 70% or more and less than 90%) | 5 (Herbicidal ratio of 90% or more (almost completely withered)) | 5 (Herbicidal ratio of 90% or more (almost completely withered)) | 4 (Herbicidal ratio of 70% or more and less than 90%) | 5 (Herbicidal ratio of 90% or more (almost completely withered)) | 1 (Herbicidal ratio of 5% or more and less than 20%) | 5 (Herbicidal ratio of 90% or more (almost completely withered)) | 4 (Herbicidal ratio of 70% or more and less than 90%)
CCN(CC)c1nnc2c(C(=O)Nc3nnnn3C)ccc(C(F)(F)F)n12 [2-089] | 2 (Herbicidal ratio of 20% or more and less than 40%) | 5 (Herbicidal ratio of 90% or more (almost completely withered)) | 4 (Herbicidal ratio of 70% or more and less than 90%) | 4 (Herbicidal ratio of 70% or more and less than 90%) | 4 (Herbicidal ratio of 70% or more and less than 90%) | 4 (Herbicidal ratio of 70% or more and less than 90%) | 1 (Herbicidal ratio of 5% or more and less than 20%) | 1 (Herbicidal ratio of 5% or more and less than 20%) | 4 (Herbicidal ratio of 70% or more and less than 90%) | 5 (Herbicidal ratio of 90% or more (almost completely withered)) | 5 (Herbicidal ratio of 90% or more (almost completely withered)) | 5 (Herbicidal ratio of 90% or more (almost completely withered)) | 4 (Herbicidal ratio of 70% or more and less than 90%) | 4 (Herbicidal ratio of 70% or more and less than 90%) | 2 (Herbicidal ratio of 20% or more and less than 40%) | 4 (Herbicidal ratio of 70% or more and less than 90%) | 3 (Herbicidal ratio of 40% or more and less than 70%)
